Reference: patent US20250019371A1, “SMALL-MOLECULAR INHIBITORS FOR THE BETA-CATENIN/ B-CELL LYMPHOMA 9 PROTEIN-PROTEIN INTERACTION” (H. LEE MOFFITT CANCER CENTER AND RESEARCH INSTITUTE, INC., priority 2021, published 2025)

Biological target: T1, β-catenin/BCL9 PPI (Homo sapiens, UniProt P35222)
T1 construct: Full-length β-catenin (residues 1-781); host or cells: E. coli BL21 DE3
T1 sequence (P35222 1-781): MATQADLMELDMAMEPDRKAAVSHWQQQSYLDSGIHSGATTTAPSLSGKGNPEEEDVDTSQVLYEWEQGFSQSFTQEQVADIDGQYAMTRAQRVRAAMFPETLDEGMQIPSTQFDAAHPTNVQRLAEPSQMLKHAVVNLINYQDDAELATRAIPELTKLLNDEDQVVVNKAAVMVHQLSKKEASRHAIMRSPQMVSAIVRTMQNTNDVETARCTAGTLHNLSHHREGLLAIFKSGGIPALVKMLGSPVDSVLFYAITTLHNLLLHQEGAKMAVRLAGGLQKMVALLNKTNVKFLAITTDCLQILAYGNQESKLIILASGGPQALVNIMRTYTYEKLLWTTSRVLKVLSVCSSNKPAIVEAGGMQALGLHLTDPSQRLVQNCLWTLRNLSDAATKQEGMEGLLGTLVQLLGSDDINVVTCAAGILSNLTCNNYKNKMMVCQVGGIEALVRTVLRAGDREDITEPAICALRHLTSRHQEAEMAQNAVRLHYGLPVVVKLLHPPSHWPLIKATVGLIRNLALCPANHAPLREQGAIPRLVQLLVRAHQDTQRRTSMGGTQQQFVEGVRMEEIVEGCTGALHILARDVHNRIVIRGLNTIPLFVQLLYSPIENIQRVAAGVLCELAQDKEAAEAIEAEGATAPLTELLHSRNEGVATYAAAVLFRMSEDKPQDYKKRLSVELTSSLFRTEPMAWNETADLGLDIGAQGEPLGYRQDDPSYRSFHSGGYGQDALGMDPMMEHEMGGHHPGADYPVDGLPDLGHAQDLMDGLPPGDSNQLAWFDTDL
Assay: AlphaScreen competitive inhibition assay of β-catenin/BCL9 PPI
Type: binding
Settings: for AlphaScreen inhibitory activity in words: SAR comparison; for IC50 / Ki: Table 1, AlphaScreen, inhibitors 16-26; for Ki: Ki derived from IC50, read-out: Ki; for potency relative to compound 12: AlphaScreen Ki compared with 12
Description: AlphaScreen Assays of β-Catenin and BCL9 Interaction. Experiments were performed in white opaque 384-well plates from PerkinElmer (Waltham, MA), and the samples were read on a Biotek Synergy 2 plate reader (Winooski, VT) with excitation at 680 nm and emission at 570 nm. The standard AlphaScreen protocol was used with a sensitivity setting of 200. All dilutions were made in 1x assay buffer containing 25 mM Hepes (pH 7.4), 100 mM NaCl, 0.01% Triton X-100 and 0.1% BSA to minimize nonspecific interactions.
For the β-catenin/BCL9 assay, 5 nM biotinylated BCL9, and 50 nM His6-tagged 8-catenin were incubated in assay buffer for 30 min. Different concentrations of the tested inhibitor were added and incubated in 20 μL assay buffer for another 1 h. All of the assay plates were covered and gently mixed on an orbital shaker. Donor and acceptor beads were then added to the plates to a final concentration of 10 μg/mL in 25 μL assay buffer. The mixture was incubated for 1 h before detection. The IC50 value was determined by nonlinear least-square analysis of GraphPad Prism 8.0. […] All of the experiments were performed in triplicate and carried out in the presence of 1% DMSO for small-molecule inhibitors. Each compound was assayed at least by three independent experiments. The results were expressed as mean±standard deviation.

In the case of `COC(=O)C(C)(C)Oc1cccc(N2CCCC(C(=O)N(Cc3ccc(-c4cccs4)cc3)C3CC3)C2)c1` (stereo not drawn) [Compound 16, Methyl 2-(3-(3-(cyclopropyl(4-(thiophen-2-yl)benzyl)carbamoyl)piperidin-1-yl)phenoxy)-2-methylpropanoate], the “AlphaScreen inhibitory activity in words” value is reported as “significant potency loss”, the IC50 is reported as greater than 100 µM and the Ki is reported as greater than 90 µM.
For `CC(C)(Oc1cccc(N2CCCC(C(=O)N(Cc3ccc(-c4cccs4)cc3)C3CC3)C2)c1)C(=O)NS(C)(=O)=O` (stereo not drawn) [Compound 18, N-Cyclopropyl-1-(3-((2-methyl-1-(methylsulfonamido)-1-oxopropan-2-yl)oxy)phenyl)-N-(4-(thiophen-2-yl)benzyl) piperidine-3-carboxamide], the “potency relative to compound 12” value was “two-fold less potent than 12”, the IC50 was no more than 30 µM and the Ki was no more than 30 µM.
In the case of `CC(C)(Oc1cccc(N2CCCC(C(=O)N(Cc3ccc(-c4cccs4)cc3)C3CC3)C2)c1)C(=O)NS(=O)(=O)C1CC1` (stereo not drawn) [Compound 19, 1-(3-((1-(Cyclopropanesulfonamido)-2-methyl-1-oxopropan-2-yl)oxy)phenyl)-N-cyclopropyl-N-(4-(thiophen-2-yl)benzyl) piperidine-3-carboxamide], the “AlphaScreen inhibitory activity in words” value is reported as “improved activities”, the IC50 is reported as no more than 30 µM and the Ki is reported as no more than 30 µM.
In the case of `CC(C)S(=O)(=O)NC(=O)C(C)(C)Oc1cccc(N2CCCC(C(=O)N(Cc3ccc(-c4cccs4)cc3)C3CC3)C2)c1` (stereo not drawn) [Compound 20, N-Cyclopropyl-1-(3-((2-methyl-1-((1-methylethyl)sulfonamido)-1-oxopropan-2-yl)oxy)phenyl)-N-(4-(thiophen-2-yl)benzyl) piperidine-3-carboxamide], the “AlphaScreen inhibitory activity in words” value is reported as “improved activities”, the IC50 is reported as no more than 30 µM and the Ki is reported as no more than 30 µM.
In the case of `CC(C)(Oc1cccc(N2CCCC(C(=O)N(Cc3ccc(-c4cccs4)cc3)C3CC3)C2)c1)C(=O)NS(=O)(=O)c1ccccc1` (stereo not drawn) [Compound 21, N-Cyclopropyl-1-(3-((2-methyl-1-oxo-1-(phenylsulfonamido)propan-2-yl)oxy)phenyl)-N-(4-(thiophen-2-yl)benzyl) piperidine-3-carboxamide], the “potency relative to compound 12” value is reported as “two-fold more potent than 12”, the “AlphaScreen inhibitory activity in words” value is reported as “improved activities” and the IC50 is reported as no more than 10 µM. For the same compound, the Ki was no more than 10 µM.
In the case of `COc1cccc(S(=O)(=O)NC(=O)C(C)(C)Oc2cccc(N3CCCC(C(=O)N(Cc4ccc(-c5cccs5)cc4)C4CC4)C3)c2)c1` (stereo not drawn) [Compound 22, N-Cyclopropyl-1-(3-((1-((3-methoxyphenyl)sulfonamido)-2-methyl-1-oxopropan-2-yl)oxy)phenyl)-N-(4-(thiophen-2-yl)benzyl) piperidine-3-carboxamide], the IC50 is reported as no more than 10 µM and the Ki is reported as no more than 5 µM.
In the case of `COc1ccc(S(=O)(=O)NC(=O)C(C)(C)Oc2cccc(N3CCCC(C(=O)N(Cc4ccc(-c5cccs5)cc4)C4CC4)C3)c2)cc1` (stereo not drawn) [Compound 23, N-Cyclopropyl-1-(3-((1-((4-methoxyphenyl)sulfonamido)-2-methyl-1-oxopropan-2-yl)oxy)phenyl)-N-(4-(thiophen-2-yl)benzyl) piperidine-3-carboxamide], the IC50 is reported as no more than 10 µM and the Ki is reported as no more than 5 µM.
With `CC(C)(Oc1cccc(N2CCCC(C(=O)N(Cc3ccc(-c4cccs4)cc3)C3CC3)C2)c1)C(=O)NS(=O)(=O)c1cccc(O)c1` (stereo not drawn) [Compound 24, N-Cyclopropyl-1-(3-((1-((3-hydroxyphenyl)sulfonamido)-2-methyl-1-oxopropan-2-yl)oxy)phenyl)-N-(4-(thiophen-2-yl)benzyl) piperidine-3-carboxamide] the IC50 was no more than 10 µM and the Ki was no more than 10 µM.
`CC(C)(Oc1cccc(N2CCCC(C(=O)N(Cc3ccc(-c4cccs4)cc3)C3CC3)C2)c1)C(=O)NS(=O)(=O)c1cccc(C#N)c1` (stereo not drawn) [Compound 25, 1-(3-((1-((3-Cyanophenyl)sulfonamido)-2-methyl-1-oxopropan-2-yl)oxy)phenyl)-N-cyclopropyl-N-(4-(thiophen-2-yl)benzyl) piperidine-3-carboxamide] gave an IC50 of no more than 10 µM and a Ki of no more than 10 µM.
